Reference: US10494380B2, “Nitrogen-containing tricyclic derivatives having HIV replication inhibitory activity” (priority 2015, dated 2019)
Where two headings read alike, the source gives them in different places.

Legend:
Type in all cases: cell-based
HIV (HTLV-IIIB strain) = assay: HIV replication inhibition assay (Test Example 1; MT-4 cells, MTT); conditions: Human immunodeficiency virus 1, MT4, 96 h, HIV (HTLV-IIIB strain), MT-4 cells, MTT, four days; for EC50: read-out: EC50; for EC90: read-out: EC90
Experimental: HIV (HTLV-IIIB strain) persistent infected human T cell strain Molt-4 clone8 was cultured in RPMI-1640 medium supplemented with 10% fetal bovine serum and the supernatant was filtered, then the virus titer was measured and stored at −80° C. Each anti-human immunodeficiency virus active substance was diluted with the above culture medium to the designated concentration, which was dispensed into 96-well microtiter plate by 50 μL. Next, 100 μL of MT-4 cell suspension (2.5×10^4 cells) was dispensed into each well, then 50 μl of the above HIV-containing supernatant diluted with the above culture medium was added thereto (60 pfu (plaque forming unit)).
Cell mixture was cultured at 37° C. in CO2 incubator for four days, then 30 μL of MTT (3-(4,5-dimethylthiazole-2-yl)-2,5-diphenyltetrazolyum bromide) reagent (5 mg/mL in PBS) was added to all wells followed by incubation for 1 hour. In this step, MTT was reduced to insoluble formazan in living cells. To elute generated formazan 150 μL of the culture supernatant was removed from all wells, then 150 μL of cell lysis solution (10% Triton X-100 and 0.4% (v/v)-HCl containing isopropanol) was added thereto, followed by shaking with a plate mixer. The formazan was measured with micro plate reader at OD: 560 nm and 690 nm (reference wavelength) and the result was compared with the reference wells. EC50 and EC90 mean the compound concentration at which cytotoxicity caused by virus infection is inhibited 50% and 90%, respectively.

HIV = conditions: EC50 in the presence of human serum (25%) versus without human serum, MT-4 cells
Experimental: To confirm the influence of human serum on anti-HIV activity as necessary, human serum was added and determined EC50 in this condition. Human serum (100 μL/well) was dispensed into each anti-HIV active substance at a designated concentration dispensed 50 μL each in advance into a 96-well microtiter plate, and the plate was incubate at room temperature for 1 hour. To the serum-free plate, only culture medium (100 μL/well) was dispensed into 96-well microtiter plate. MT-4 cells (3×10^4 cells/well) was infected with 3 μL/well of HIV solution diluted to an appropriate concentration (600 pfu/50 μL) by the required number of wells and incubated at 37° C. for 1 hour. The infected cells were centrifuged at 1200 rpm for 5 minutes, the supernatant was discarded, and the infected cells were dispersed into culture medium for the required number of wells at 50 μL/well. Infected cell suspension was dispensed into a 96-well microtiter plate of which anti-HIV active substance and human serum prepared in advance. The cell mixture was mixed with a plate mixer and cultured in a CO2 incubator for 4 days. The EC50 in the presence of human serum was calculated in the same manner as in Test Example 1 and the ratio of EC50 in the presence of human serum and EC50 in the absence of human serum was calculated as the potency shift value. […]

[1] = test system: T125A mutant virus (HIV-1 NL-432 recombinant molecular clone, IN gene); assay: HIV replication inhibition assay against integrase 124/125 mutant virus (Test Example 2)
Method in brief: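 MT-4 cells (2.5×10^4 per well) infected with 60 pfu of 293T-derived HIV-1 NL-432 clone carrying integrase 124/125 point mutations, in presence of compound, cultured 4 days at 37 °C. Viability by MTT formazan at 560/690 nm; EC50 = concentration inhibiting 50% of virus-induced cytotoxicity.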

[2] = Human immunodeficiency virus 1, MT4, read-out: EC50 against T125A mutant virus, T125A mutant virus (HIV-1 NL-432 IN gene), MT-4 cells, MTT
[3] = T125A mutant virus (HIV-1 NL-432 IN gene), MT-4 cells, MTT, read-out: EC50 against T125A mutant virus

CCCc1cc2c(-c3ccc(C)cc3)c([C@H](OC(C)(C)C)C(=O)O)c(C)c3c2n1CCN3C [Compound I-013]
EC50 (HIV (HTLV-IIIB strain)): 9.7 nM
EC90 (HIV (HTLV-IIIB strain)): 15 nM
Potency shift value (HIV): 49

Cc1ccc(-c2c([C@H](OC(C)(C)C)C(=O)O)c(C)c3c4c2cc(C)n4CCN3)cc1 [Compound I-015]
EC50 (HIV (HTLV-IIIB strain)): 27 nM
EC90 (HIV (HTLV-IIIB strain)): 40 nM
Potency shift value (HIV): 11

Cc1ccc(-c2c([C@H](OC(C)(C)C)C(=O)O)c(C)c3c4c2c(Cl)c(C)n4CCN3C)cc1 [Compound I-002]
EC50 (HIV (HTLV-IIIB strain)): 2.2 nM
EC90 (HIV (HTLV-IIIB strain)): 3.5 nM
EC50 [1, 2]: 21 nM

Cc1ccc(-c2c([C@H](OC(C)(C)C)C(=O)O)c(C)c3c4c2ccn4CCN3C)cc1 [Compound I-004]
EC50 (HIV (HTLV-IIIB strain)): 4.1 nM
EC90 (HIV (HTLV-IIIB strain)): 6 nM
EC50 [1, 2]: 48 nM

Cc1ccc(-c2c([C@H](OC(C)(C)C)C(=O)O)c(C)c3c4c2cc(COCc2ccccc2)n4CCN3C)cc1 [Compound I-005]
EC50 (HIV (HTLV-IIIB strain)): 31 nM
EC90 (HIV (HTLV-IIIB strain)): 46 nM
Potency shift value (HIV): 7.8

Cc1ccc(-c2c([C@H](OC(C)(C)C)C(=O)O)c(C)c3c4c2cc(CO)n4CCN3C)cc1 [Compound I-022]
EC50 (HIV (HTLV-IIIB strain)): 17 nM
EC90 (HIV (HTLV-IIIB strain)): 25 nM
Potency shift value (HIV): 4.5

Cc1ccc(-c2c([C@H](OC(C)(C)C)C(=O)O)c(C)c3c4c2cc(C)n4CCN3CCNC2CC2)cc1 [Compound I-028]
EC50 (HIV (HTLV-IIIB strain)): 74 nM
EC90 (HIV (HTLV-IIIB strain)): 93 nM
Potency shift value (HIV): 2.5

Cc1c(-c2c([C@H](OC(C)(C)C)C(=O)O)c(C)c3c4c2cc(C)n4CCN3CCN(C)C)cc(F)c2c1CCCO2 [Compound I-310]
EC50 [1, 2]: 68 nM
Potency shift value (HIV): 1.2

Cc1c([C@H](OC(C)(C)C)C(=O)O)c(-c2cc3ccccc3s2)c2cc(C)n3c2c1N(CCN(C)C)CC3 [Compound I-319]
EC50 [1, 2]: 87 nM
Potency shift value (HIV): 3.4

Cc1ccc(-c2c([C@H](OC(C)(C)C)C(=O)O)c(C)c3c4c2cc(C)n4CCN3CCN2CCC(F)(F)C2)cc1 [Compound I-162]
EC50 [1, 2]: 35 nM
Potency shift value (HIV): 7.5

Cc1c([C@H](OC(C)(C)C)C(=O)O)c(-c2ccc(Cl)cc2)c2cc(C)n3c2c1N(C(N)=O)CC3 [Compound I-173]
EC50 [1, 2]: 71 nM
Potency shift value (HIV): 4

Cc1ccc(-c2c([C@H](OC(C)(C)C)C(=O)O)c(C)c3c4c2cc(C)n4CCN3c2ncc(Oc3nc(C)nc4ccccc34)cn2)cc1 [Compound I-343]
EC50 [1, 2]: 21 nM
Potency shift value (HIV): 11

Cc1c([C@H](OC(C)(C)C)C(=O)O)c(-c2ccc(Cl)cc2)c2cc(C)n3c2c1C=CC3 [Compound I-174]
EC50 [1, 2]: 55 nM
Potency shift value (HIV): 14

Cc1c([C@H](OC(C)(C)C)C(=O)O)c(-c2ccc(Cl)cc2)c2cc(C)n3c2c1N(c1ncccc1F)CC3 [Compound I-193]
EC50 [1, 2]: 2.8 nM
Potency shift value (HIV): 21

Cc1ccc(-c2c([C@H](OC(C)(C)C)C(=O)O)c(C)c3c4c2cc(C)n4CCN3c2cccc(F)n2)cc1 [Compound I-286]
EC50 [1, 2]: 15 nM
Potency shift value (HIV): 14

Cc1ccc(-c2c([C@H](OC(C)(C)C)C(=O)O)c(C)c3c4c2cc(C)n4CCN3c2ncc(CCN3CCN(C)CC3)cn2)cc1 [Compound I-351]
EC50 [1, 2]: 17 nM
Potency shift value (HIV): 5.5

Cc1c([C@H](OC(C)(C)C)C(=O)O)c(C2=CCC(C)(C)CC2)c2cc(C)n3c2c1N(CCN(C)C)CC3 [Compound I-320]
EC50 [1, 2]: 16 nM
Potency shift value (HIV): 2.6

Cc1ccc(-c2c([C@H](OC(C)(C)C)C(=O)O)c(C)c3c4c2cc(C)n4CCN3c2cnc(C)cn2)cc1 [Compound I-264]
EC50 [1, 2]: 4.4 nM
Potency shift value (HIV): 26

Cc1c([C@H](OC(C)(C)C)C(=O)O)c(-c2ccc(Cl)cc2)c2cc(C)n3c2c1OC(C)C3 (stereo partly drawn) [Compound I-195]
EC50 [1, 2]: 15 nM
Potency shift value (HIV): 12

Cc1ccc(-c2c([C@H](OC(C)(C)C)C(=O)O)c(C)c3c4c2cc(C)n4CCN3c2ncc(N3C[C@@H](C)O[C@@H](C)C3)cn2)cc1 [Compound I-316]
EC50 [1, 2]: 6.6 nM
Potency shift value (HIV): 17

Cc1ccc(-c2c([C@H](OC(C)(C)C)C(=O)O)c(C)c3c4c2cc(C)n4CCN3c2cccc(C(=O)N(C)C)n2)cc1 [Compound I-269]
EC50 [1, 2]: 29 nM
Potency shift value (HIV): 7.4

Cc1ccc(-c2c([C@H](OC(C)(C)C)C(=O)O)c(C)c3c4c2cc(C)n4CCN3c2ccc3ncccc3n2)cc1 [Compound I-289]
EC50 [1, 2]: 35 nM
Potency shift value (HIV): 15

COc1cnc(N2c3c(C)c([C@H](OC(C)(C)C)C(=O)O)c(-c4ccc(Cl)cc4)c4cc(C)n(c34)C3CN(C(=O)c4ccccc4)CC32)nc1 (stereo partly drawn) [Compound I-322]
EC50 [1, 2]: 44 nM
Potency shift value (HIV): 15

Cc1ccc(-c2c([C@H](OC(C)(C)C)C(=O)O)c(C)c3c4c2cc(C)n4CCN3c2ncc(OCCN(C)S(C)(=O)=O)cn2)cc1 [Compound I-225]
EC50 [1, 3]: 11 nM
Potency shift value (HIV): 9.7

Cc1c([C@H](OC(C)(C)C)C(=O)O)c(-c2ccc(Cl)cc2)c2cc(C)n3c2c1OCCC3 [Compound I-188]
EC50 [1, 2]: 14 nM
Potency shift value (HIV): 11

Cc1ccc(-c2c([C@H](OC(C)(C)C)C(=O)O)c(C)c3c4c2cc(C)n4CCN3c2ncc(C(=O)N(C)C)cn2)cc1 [Compound I-250]
EC50 [1, 2]: 9.9 nM
Potency shift value (HIV): 19

COc1ccc(N2CCn3c(C)cc4c(-c5ccc(Cl)cc5)c([C@H](OC(C)(C)C)C(=O)O)c(C)c2c43)nc1 [Compound I-192]
EC50 [1, 2]: 4.6 nM
Potency shift value (HIV): 11

Cc1ccc(-c2c([C@H](OC(C)(C)C)C(=O)O)c(C)c3c4c2cc(C)n4CCN3c2ncc(Oc3nccc4ccccc34)cn2)cc1 [Compound I-344]
EC50 [1, 2]: 17 nM
Potency shift value (HIV): 33

Cc1c([C@H](OC(C)(C)C)C(=O)O)c(-c2ccc(Cl)cc2)c2cc(C)n3c2c1N(C(=O)C(=O)N(C)C)[C@H](C)C3 [Compound I-169]
EC50 [1, 2]: 50 nM
Potency shift value (HIV): 30

Cc1cc2c(-c3ccc(Cl)cc3)c([C@H](OC(C)(C)C)C(=O)O)c(Cl)c3c2n1CCN3C [Compound I-228]
EC50 [1, 2]: 2.6 nM
Potency shift value (HIV): 9.1

Cc1ccc(-c2c([C@H](OC(C)(C)C)C(=O)O)c(Cl)c3c4c2cc(C)n4CCN3)cc1 [Compound I-247]
EC50 [1, 2]: 8.3 nM
Potency shift value (HIV): 7.6

Cc1ccc(-c2c([C@H](OC(C)(C)C)C(=O)O)c(C)c3c4c2cc(C)n4CCN3CCF)cc1 [Compound I-209]
EC50 [1, 3]: 16 nM
Potency shift value (HIV): 24

Cc1ccc(-c2c([C@H](OC(C)(C)C)C(=O)O)c(C)c3c4c2cc(C)n4CCN3c2ncc(Oc3ncccn3)cn2)cc1 [Compound I-330]
EC50 [1, 2]: 7.7 nM
Potency shift value (HIV): 39

Cc1c([C@H](OC(C)(C)C)C(=O)O)c(-c2ccc(Cl)cc2)c2cc(C)n3c2c1OC(C)C3 (stereo partly drawn) [Compound I-196]
EC50 ([1]; read-out: EC50 against T125A mutant virus, T125A mutant virus (HIV-1 NL-432 IN gene), MT-4 cells, MTT): 18 nM
Potency shift value (HIV): 11

Cc1ccc(-c2c([C@H](OC(C)(C)C)C(=O)O)c(Cl)c3c4c2cc(C)n4CCN3c2nc3c(s2)CN(C)CC3)cc1 [Compound I-353]
EC50 [1, 2]: 15 nM
Potency shift value (HIV): 10

Cc1c([C@H](OC(C)(C)C)C(=O)O)c(-c2ccc(Cl)cc2)c2cc(C)n3c2c1N(C(=O)Nc1ccccc1Br)CC3 [Compound I-232]
EC50 [1, 2]: 34 nM
Potency shift value (HIV): 8.6

Cc1ccc(-c2c([C@H](OC(C)(C)C)C(=O)O)c(C)c3c4c2cc(C)n4CCN3c2ncc(OC3COC3)cn2)cc1 [Compound I-280]
EC50 [1, 2]: 5.3 nM
Potency shift value (HIV): 21
